These results are taken from patent US6750228B1, “Aromatic sulfone hydroxamic acid metalloprotease inhibitor” (priority 1997, dated 2004).

Common to all, as to assay: biochemical
One assay concerns the target T1, MMP-13 (Homo sapiens, UniProt P45452).
T1 construct: made in house; host or cells: baculovirus / insect cells
Here is the method: (§1) The compounds prepared in the manner described in the Examples above were assayed for activity by an in vitro assay. […] Briefly, 4-aminophenylmercuric acetate (APMA) or trypsin-activated MMPs were incubated with various concentrations of the inhibitor compound at room temperature for 5 minutes.
(§2) The expressed enzyme was purified first over a heparin agarose column and then over a chelating zinc chloride column. The proenzyme was activated by APMA for use in the assay.
(§3) MMP-1 expressed in transfected HT-1080 cells was provided by Dr. Harold Welgus of Washington University, St. Louis, Mo. The enzyme was also activated using APMA and was then purified over a hydroxamic acid column. Dr. Welgus also provided transfected HT-1080 cells that expressed MMP-9. Transfected cells that expressed MMP-2 were provided by Dr. Gregory Goldberg, also of Washington University. Studies with MMP-7 were carried out at pH 7.5 in the presence of 0.02% 2-mercaptoethanol using conditions otherwise similar to those used for the other enzymes. The enzyme was obtaind from a hMMP-7-expressing E. coli clone that was a gift of Dr. Steven Shapiro of Washington University, St. Louis, Mo. Further specifics for preparation and use of these enzymes can be found in the scientific literature describing these enzymes. See, for example, Enzyme Nomenclature, Academic Press, San Diego, Calif. […] The enzyme substrate is a methoxycoumarin-containing polypeptide having the following sequence:
(§4) MCA-ProLeuGlyLeuDpaAlaArgNH2, wherein MCA is methoxycoumarin and Dpa is 3-(2,4-dinitrophenyl)-L-2,3-diaminopropionyl alanine.
(§5) The buffer used for assays contained 100 mM Tris-HCl, 100 mM NaCl, 10 mM CaCl2 and 0.05 percent polyethyleneglycol (23) lauryl ether at a pH value of 7.5. Assays were carried out at room temperature, and dimethyl sulfoxide (DMSO) at a final concentration of 1 percent was used to dissolve inhibitor compound.
(§6) The assayed inhibitor compound in DMSO/buffer solution was compared to an equal amount of DMSO/buffer with no inhibitor as control using Microfluor White Plates (Dynatech). The inhibitor or control solution was maintained in the plate for 10 minutes and the substrate was added to provide a final concentration of 4 μM.
(§7) Inhibition was measured as a reduction in fluorescent intensity as a function of inhibitor concentration, using a Perkin Elmer L550 plate reader. The IC50 values were calculated from those values. The results are set forth in the Inhibition Table A, below, reported in terms of IC50 to three significant figures, where appropriate.

The target in another assay is T2, MMP-1 (Homo sapiens, UniProt P03956).
T2 construct: made in house; host or cells: transfected HT-1080 cells (provided by Dr. Harold Welgus, Washington University)
T2 sequence (P03956 100-469): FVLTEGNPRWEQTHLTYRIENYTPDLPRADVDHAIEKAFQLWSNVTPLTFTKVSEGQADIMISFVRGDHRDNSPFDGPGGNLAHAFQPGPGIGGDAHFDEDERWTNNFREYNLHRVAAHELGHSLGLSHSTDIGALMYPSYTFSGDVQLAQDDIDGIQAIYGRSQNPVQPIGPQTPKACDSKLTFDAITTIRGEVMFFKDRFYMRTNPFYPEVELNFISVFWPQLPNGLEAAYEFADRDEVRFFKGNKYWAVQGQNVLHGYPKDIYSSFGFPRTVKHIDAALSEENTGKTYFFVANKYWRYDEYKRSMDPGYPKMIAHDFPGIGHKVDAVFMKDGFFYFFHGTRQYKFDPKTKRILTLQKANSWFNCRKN
The settings on record: read-out: MMP-1 IC50. How it is done: as §1, §2, §3, §4, §5, §6, §7

A further assay has as its target T3, MMP-2 (Homo sapiens, UniProt P08253).
T3 construct: made in house; provided by Dr. Gregory Goldberg, Washington University
T3 sequence (P08253 110-660): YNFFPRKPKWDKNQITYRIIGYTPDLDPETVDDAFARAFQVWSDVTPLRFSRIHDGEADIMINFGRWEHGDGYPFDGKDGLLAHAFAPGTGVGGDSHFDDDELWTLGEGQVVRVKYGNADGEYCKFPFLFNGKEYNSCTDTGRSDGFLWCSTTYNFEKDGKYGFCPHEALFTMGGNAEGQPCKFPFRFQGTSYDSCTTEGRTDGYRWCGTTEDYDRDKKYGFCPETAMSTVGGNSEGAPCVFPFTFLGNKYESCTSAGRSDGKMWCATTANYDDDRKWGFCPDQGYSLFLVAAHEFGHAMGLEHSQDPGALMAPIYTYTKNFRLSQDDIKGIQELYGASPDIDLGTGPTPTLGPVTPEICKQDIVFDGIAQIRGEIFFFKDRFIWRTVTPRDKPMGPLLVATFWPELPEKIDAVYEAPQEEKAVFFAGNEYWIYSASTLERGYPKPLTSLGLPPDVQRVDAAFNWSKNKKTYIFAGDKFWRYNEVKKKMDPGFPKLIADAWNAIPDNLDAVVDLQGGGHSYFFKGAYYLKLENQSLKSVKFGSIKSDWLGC
Here is the method:
as §1, §2, §3, §4, §5, §6, §7

Setting [1] is: recombinant human MMP-13, MCA peptide substrate 4 μM, pH 7.5, room temperature, read-out: MMP-13 IC50.
Where [2] appears, read: recombinant human MMP-2, MCA peptide substrate 4 μM, pH 7.5, room temperature, read-out: MMP-2 IC50.
Setting [3] is: recombinant human MMP-1, MCA peptide substrate 4 μM, pH 7.5, room temperature.

Structures are written as SMILES. Counter-ions that a name gives are not always drawn. Like-named read-outs stand apart in the source and are kept apart here.

`C[C@H]1C[C@H](C)CN(C(=O)C2CCN(c3ccc(S(=O)(=O)C4(C(=O)NO)CCNCC4)cc3)CC2)C1` (relative stereo) [Example 238, rel-4-[[4-[4-[[(3R,5R)-3,5-Dimethyl-1-piperidinyl]carbonyl]-1-piperidinyl]phenyl]sulfonyl]-N-hydroxy-4-piperidinecarboxamide, Monohydrochloride]: the results for the IC50 on MMP-13 (read-out: MMP-13 IC50) and on MMP-1 were 80 nM and above 10000 nM, respectively.

On to `C[C@H]1C[C@H](C)CN(C(=O)C2CCN(c3ccc(S(=O)(=O)C4(C(=O)NO)CCN(C(=O)OC(C)(C)C)CC4)cc3)CC2)C1` (relative stereo) [Example 239, rel-1,1-Dimethylethyl 4-[[4-[4-[[(3R,5R)-3,5-Dimethyl-1-piperidinyl]carbonyl]-1-piperidinyl]-phenyl]sulfonyl]-4-[(hydroxyamino)carbonyl]-1-piperidinecarboxylate], for which the 50% inhibitory concentration (IC50) at MMP-13 (read-out: MMP-13 IC50) is 9 nM; on MMP-2 (read-out: MMP-2 IC50) it was 8300 nM; on MMP-1 it was above 10000 nM.

As to `CN(C)CCN1CCN(C(=O)C2CCN(c3ccc(S(=O)(=O)C4(C(=O)NO)CCOCC4)cc3)CC2)CC1` [Example 23], the IC50 was 90 nM on MMP-13 (read-out: MMP-13 IC50) and above 10000 nM on MMP-1.

`CCOc1ccccc1N1CCN(C(=O)C2CCN(c3ccc(S(=O)(=O)C4(C(=O)NO)CCOCC4)cc3)CC2)CC1` [Example 24]: the values for the IC50 at MMP-13 (read-out: MMP-13 IC50), at MMP-2 (read-out: MMP-2 IC50) and on MMP-1 were 23.5 nM, 4500 nM and above 10000 nM, respectively.

Take `O=C(C1CCN(c2ccc(S(=O)(=O)C3(C(=O)NO)CCOCC3)cc2)CC1)N1CCN(c2ccc(F)cc2)CC1` [Example 25]: the IC50 at MMP-13 (read-out: MMP-13 IC50) was 6 nM; against MMP-2 (MMP-2 IC50 (nM)) it was 1600 nM; on MMP-1 it was above 10000 nM.

On to `O=C(C1CCN(c2ccc(S(=O)(=O)C3(C(=O)NO)CCOCC3)cc2)CC1)N1CCN(c2ccccn2)CC1` [Example 26], for which the concentration for half-maximal inhibition (IC50) at MMP-2 (read-out: MMP-2 IC50) was 3600 nM; at MMP-1, above 10000 nM.

As for `O=C(C1CCN(c2ccc(S(=O)(=O)C3(C(=O)NO)CCOCC3)cc2)CC1)N1CCN(c2ccc(C(F)(F)F)cc2[N+](=O)[O-])CC1` [Example 32], the figures for the IC50 at MMP-13 (read-out: MMP-13 IC50), at MMP-2 (read-out: MMP-2 IC50) and at MMP-1 were 10 nM, 800 nM and above 10000 nM, respectively.

For the molecule `O=C(C1CCN(c2ccc(S(=O)(=O)C3(C(=O)NO)CCOCC3)cc2)CC1)N1CCN(c2ncccc2C(F)(F)F)CC1` [Example 33], the IC50 on MMP-13 (read-out: MMP-13 IC50) was 20 nM; on MMP-2 (read-out: MMP-2 IC50), 4500 nM; on MMP-1, above 10000 nM.

`CCCN(CC1CC1)C(=O)C1CCN(c2ccc(S(=O)(=O)C3(C(=O)NO)CCOCC3)cc2)CC1` [Example 35]: the IC50 at MMP-13 (setting [1]) was 30 nM; on MMP-2 (setting [2]), 9000 nM; at MMP-1 (setting [3]), above 10000 nM.

In the case of `O=C(C1CCN(c2ccc(S(=O)(=O)C3(C(=O)NO)CCOCC3)cc2)CC1)N1CCN(c2ccc(F)cc2F)CC1` [Example 36], the 50% inhibitory concentration (IC50) on MMP-13 (read-out: MMP-13 IC50) was 15.8 nM; at MMP-2 (read-out: MMP-2 IC50), 2100 nM; on MMP-1, above 10000 nM.

Turning to `O=C(C1CCN(c2ccc(S(=O)(=O)C3(C(=O)NO)CCOCC3)cc2)CC1)N1CCN(c2ccncc2)CC1` [Example 37], the IC50 at MMP-13 (MMP-13 IC50 (nM), recombinant human MMP-13, MCA peptide substrate 4 μM, pH 7.5, room temperature) was 30 nM; on MMP-2 (read-out: MMP-2 IC50), 1750 nM; on MMP-1 it was above 10000 nM.

In the case of `C[C@@H]1CN(C(=O)C2CCN(c3ccc(S(=O)(=O)C4(C(=O)NO)CCOCC4)cc3)CC2)C[C@H](C)N1` [Example 46], the IC50 was 5700 nM against MMP-2 (MMP-2 IC50 (nM)) and above 10000 nM at MMP-1.

As to `C[C@@H]1C[C@H](C)CN(C(=O)C2CCN(c3ccc(S(=O)(=O)C4(C(=O)NO)CCNCC4)cc3)CC2)C1` [Example 240, rel-4-[[4-[4-[[(3R,5S)-3,5-Dimethyl-1-piperidinyl]carbonyl]-1-piperidinyl]phenyl]sulfonyl]-N-hydroxy-4-piperidinecarboxamide, Monohydrochloride], the IC50 at MMP-13 (setting [1]) was 76.9 nM; at MMP-1 (setting [3]) it was above 10000 nM.

`CC1CC(C)CN(C(=O)C2CCN(c3ccc(S(=O)(=O)C4(C(=O)NO)CCN(C(=O)CN5CCN(CCN(C)C)CC5)CC4)cc3)CC2)C1` (stereo not shown) [Example 308]: the half-maximal inhibitory concentration (IC50) is 40 nM at MMP-13 (setting [1]) and above 10000 nM on MMP-1 (setting [3]).

On to `CC1CC(C)CN(C(=O)C2CCN(c3ccc(S(=O)(=O)C4(C(=O)NO)CCN(C(=O)CNCC(F)(F)F)CC4)cc3)CC2)C1` (stereo not shown) [Example 310], for which the IC50 on MMP-13 (setting [1]) was 60 nM; at MMP-1 (setting [3]) it was above 10000 nM.

Consider `O=C(NO)C1(S(=O)(=O)c2ccc(N3CCC(SCc4ccccc4)CC3)cc2)CCN(C2CC2)CC1` [Example 417], for which the IC50 on MMP-13 (setting [1]) was 0.7 nM; at MMP-1 (setting [3]), above 10000 nM.

Consider `COc1ccc(C(=O)C2CCN(c3ccc(S(=O)(=O)C4(C(=O)NO)CCN(C(=O)c5ccco5)CC4)cc3)CC2)cc1` [Example 436], for which the IC50 at MMP-1 (setting [3]) was above 10000 nM.

With `COc1ccc(C(=O)C2CCN(c3ccc(S(=O)(=O)C4(C(=O)NO)CCNCC4)cc3)CC2)cc1` [Example 437], on MMP-1 (setting [3]), the IC50 was above 10000 nM.

For `O=C(NO)C1(S(=O)(=O)c2ccc(N3CCC(SCc4ccc(OC(F)(F)F)cc4)CC3)cc2)CCN(C2CC2)CC1` [Example 454], the IC50 at MMP-1 (setting [3]) was above 10000 nM.

For the molecule `O=C(NO)C1(S(=O)(=O)c2ccc(N3CCC(SCc4ccc(OC(F)(F)F)cc4)CC3)cc2)CCNCC1` [Example 460], the concentration for half-maximal inhibition (IC50) at MMP-1 (setting [3]) is above 10000 nM.

For the molecule `O=C(NO)C1(S(=O)(=O)c2ccc(N3CCC(SCc4ccccc4Cl)CC3)cc2)CCN(C2CC2)CC1` [Example 461], the half-inhibitory concentration (IC50) at MMP-1 (setting [3]) was above 10000 nM.

On to `O=C(NO)C1(S(=O)(=O)c2ccc(N3CCC(SCc4cccc(C(F)(F)F)c4)CC3)cc2)CCN(C2CC2)CC1` [Example 463], for which the half-inhibitory concentration (IC50) on MMP-1 (setting [3]) was above 10000 nM.

`CN(C)c1ccc(C(=O)C2CCN(c3ccc(S(=O)(=O)C4(C(=O)NO)CCOCC4)cc3)CC2)cc1` [Example 802]: the values for the IC50 on MMP-13 (setting [1]) and at MMP-1 (setting [3]) were 2.3 nM and above 10000 nM, respectively.

As for `COc1cc(C(=O)C2CCN(c3ccc(S(=O)(=O)C4(C(=O)NO)CCOCC4)cc3)CC2)ccc1Cl` [Example 859], the figures for the IC50 on MMP-13 (setting [1]) and at MMP-2 (setting [2]) were 5.5 nM and 440 nM, respectively.

Turning to `O=C(Cc1ccc(Cl)cc1)C1CCN(c2ccc(S(=O)(=O)C3(C(=O)NO)CCOCC3)cc2)CC1` [Example 861], the concentration for half-maximal inhibition (IC50) is 2 nM at MMP-13 (setting [1]) and 34.9 nM at MMP-2 (setting [2]).

On to `COc1ccc(CC(=O)C2CCN(c3ccc(S(=O)(=O)C4(C(=O)NO)CCOCC4)cc3)CC2)cc1` [Example 862], for which the values for the IC50 at MMP-13 (setting [1]) and at MMP-2 (setting [2]) were 1.7 nM and 40 nM, respectively.

As for `Cn1ccc2cc(C(=O)C3CCN(c4ccc(S(=O)(=O)C5(C(=O)NO)CCOCC5)cc4)CC3)ccc21` [Example 867], the IC50 on MMP-13 (setting [1]) was 16.5 nM; on MMP-1 (setting [3]) it was above 10000 nM.

For the molecule `Cc1ccc(C2CCN(c3ccc(S(=O)(=O)C4(C(=O)NO)CCOCC4)cc3)CC2)cc1C` [Example 869], the IC50 came to 2 nM at MMP-13 (setting [1]) and 76.9 nM on MMP-2 (setting [2]).

In general, IC50 refers to the concentration that gives 50% inhibition.
